# Measured values reported in ChEMBL document CHEMBL1201862, “PubChem BioAssay data set” (2004).
#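 Cells were grown in 96-well plates and exposed to each compound for 48 hours at five concentrations; endpoints were interpolated linearly between bracketing concentrations, or set to the highest concentration if not reached. Abbreviation: GI50, concentration required for 50% inhibition of growth.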 The source made the active and inactive calls. No stated cut-off is given here; in the data, active = GI50 up to about 1.1 µM and inactive = higher.
# Columns and labels:
# Experiment in all cases: inhibition of tumour cell growth, NCI panel, 48 h
# [1] = tested on: OVCAR-8
# [2] = tested on: NCI-H226
# [3] = tested on: SN12C
# [4] = tested on: TK-10
# [5] = tested on: RPMI-8226
# [6] = tested on: SW-620
# [7] = tested on: EKVX
# [8] = tested on: OVCAR-4
# [9] = tested on: SF-539
# [10] = tested on: UO-31
# [11] = tested on: HT-29
# [12] = tested on: SNB-19
# [13] = tested on: NCI-H460
# [14] = tested on: OVCAR-3
# [15] = tested on: M14
# [16] = tested on: HOP-62
# [17] = tested on: SF-295
Compound,GI50 [1],GI50 [2],GI50 [3],GI50 [4],GI50 [5],GI50 [6],GI50 [7],GI50 [8],GI50 [9],GI50 [10],GI50 [11],GI50 [12],GI50 [13],GI50 [14],GI50 [15],GI50 [16],GI50 [17]
CC1C2=C(O)CC(C)(C)CC2=NC2=C1C(=O)CC(C)(C)C2 (stereo unspecified),> 100 µM (inactive),> 100 µM (inactive),> 100 µM (inactive),> 100 µM (inactive),> 100 µM (inactive),> 100 µM (inactive),> 100 µM (inactive),> 100 µM (inactive),> 100 µM (inactive),> 100 µM (inactive),> 100 µM (inactive),> 100 µM (inactive),> 100 µM (inactive),> 100 µM (inactive),> 100 µM (inactive),–,–
CC(=O)N(O)Cc1ccccc1,> 100 µM (inactive),> 100 µM (inactive),> 100 µM (inactive),> 100 µM (inactive),> 100 µM (inactive),> 100 µM (inactive),–,> 100 µM (inactive),> 100 µM (inactive),> 100 µM (inactive),> 100 µM (inactive),> 100 µM (inactive),> 100 µM (inactive),> 100 µM (inactive),> 100 µM (inactive),> 100 µM (inactive),> 100 µM (inactive)
CCOC(=O)C(C)(C)Oc1ccc2c(=O)cc(-c3ccc(Cl)cc3)oc2c1,> 100 µM (inactive),> 100 µM (inactive),> 100 µM (inactive),> 100 µM (inactive),> 100 µM (inactive),> 100 µM (inactive),> 100 µM (inactive),> 100 µM (inactive),> 100 µM (inactive),> 100 µM (inactive),> 100 µM (inactive),> 100 µM (inactive),> 100 µM (inactive),> 100 µM (inactive),> 100 µM (inactive),> 100 µM (inactive),> 100 µM (inactive)
COC(=O)C(Cc1nc2ccccc2nc1O)C(=O)C(=O)Nc1ccc([N+](=O)[O-])cc1[N+](=O)[O-] (stereo unspecified),22.3 µM (inactive),14.5 µM (inactive),19.8 µM (inactive),26.4 µM (inactive),23.1 µM (inactive),18.7 µM (inactive),20 µM (inactive),20.1 µM (inactive),20.6 µM (inactive),20.6 µM (inactive),19.4 µM (inactive),29.7 µM (inactive),22.1 µM (inactive),15.5 µM (inactive),17.8 µM (inactive),24.2 µM (inactive),24.9 µM (inactive)
NCC(=O)OCN1C(=O)C2C3C=CC(C2C1=O)C1C2C(=O)N(COC(=O)CN)C(=O)C2C31 (stereo unspecified),20.3 µM (inactive),39.5 µM (inactive),23.3 µM (inactive),53.1 µM (inactive),28 µM (inactive),24.4 µM (inactive),> 100 µM (inactive),26.1 µM (inactive),18.9 µM (inactive),56.8 µM (inactive),36.6 µM (inactive),48.8 µM (inactive),17.3 µM (inactive),35 µM (inactive),18.9 µM (inactive),–,53.7 µM (inactive)
CCc1oc2ccc(OC)c3c2c1C=CC=C3,> 100 µM (inactive),> 100 µM (inactive),> 100 µM (inactive),> 100 µM (inactive),> 100 µM (inactive),> 100 µM (inactive),> 100 µM (inactive),> 100 µM (inactive),> 100 µM (inactive),21.9 µM (inactive),77.3 µM (inactive),> 100 µM (inactive),> 100 µM (inactive),> 100 µM (inactive),> 100 µM (inactive),> 100 µM (inactive),> 100 µM (inactive)
Cc1ccc(S(=O)(=O)N/N=C\c2c3ccccc3[n+]([O-])c3ccccc23)cc1,4.03 µM (inactive),4.54 µM (inactive),4.59 µM (inactive),4.9 µM (inactive),0.415 µM (active),2.18 µM (inactive),20 µM (inactive),10.8 µM (inactive),–,14.1 µM (inactive),1.63 µM (inactive),11.9 µM (inactive),2.44 µM (inactive),16.1 µM (inactive),4.57 µM (inactive),5.38 µM (inactive),6.76 µM (inactive)
Cn1c(-c2ccccc2)c/c(=N\NS(C)(=O)=O)c2cc(S(=O)(=O)O)ccc21,> 100 µM (inactive),> 100 µM (inactive),> 100 µM (inactive),> 100 µM (inactive),> 100 µM (inactive),> 100 µM (inactive),> 100 µM (inactive),> 100 µM (inactive),> 100 µM (inactive),> 100 µM (inactive),> 100 µM (inactive),> 100 µM (inactive),> 100 µM (inactive),> 100 µM (inactive),> 100 µM (inactive),> 100 µM (inactive),> 100 µM (inactive)
